Non-standard residues stand in square brackets, D forms with d. Residues, ends and D or L forms follow the SMILES beside them. pGlu = O=C1CC[C@@H](C(=O)O)N1; Abu = CC[C@H](N)C(=O)O; Ahx = NCCCCCC(=O)O
Target: T1, Orexin/Hypocretin receptor type 1 (Homo sapiens, UniProt O43613)
T1 sequence (O43613 whole entry): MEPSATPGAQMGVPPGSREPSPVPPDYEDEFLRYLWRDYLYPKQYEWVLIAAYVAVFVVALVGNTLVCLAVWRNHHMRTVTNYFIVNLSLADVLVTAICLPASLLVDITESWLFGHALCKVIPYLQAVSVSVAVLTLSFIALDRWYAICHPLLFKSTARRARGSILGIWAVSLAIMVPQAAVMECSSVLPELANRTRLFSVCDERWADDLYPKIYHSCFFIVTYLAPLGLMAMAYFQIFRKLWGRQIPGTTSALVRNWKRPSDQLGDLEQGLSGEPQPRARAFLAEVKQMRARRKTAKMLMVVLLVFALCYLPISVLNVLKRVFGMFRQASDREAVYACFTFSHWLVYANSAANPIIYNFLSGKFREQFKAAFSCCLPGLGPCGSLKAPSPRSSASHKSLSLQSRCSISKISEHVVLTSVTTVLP
Assay: Effective agonist concentration to human orexin receptor type 1 determined using the Xlfit program
Type: functional

Compound | EC50
CC[C@H](C)[C@H](NC(=O)CNC(=O)[C@H](C)NC(=O)[C@H](C)NC(=O)[C@H](Cc1c[nH]cn1)NC(=O)[C@H](CC(N)=O)NC(=O)CN)C(=O)N[C@@H](CC(C)C)C(=O)N[C@H](C(=O)N[C@@H](CC(C)C)C(N)=O)[C@@H](C)O (H-GNHAAGILTL-NH2) | > 1000 µM
CC[C@H](C)[C@H](NC(=O)CNC(=O)[C@H](C)NC(=O)[C@H](C)NC(=O)[C@H](Cc1c[nH]cn1)NC(=O)[C@H](CC(N)=O)NC(=O)CNC(=O)[C@H](CO)NC(=O)[C@H](C)NC(=O)[C@H](CCC(N)=O)NC(=O)[C@H](CC(C)C)NC(=O)[C@H](CC(C)C)NC(=O)[C@H](CCCN=C(N)N)NC(=O)[C@H](CCC(N)=O)NC(=O)[C@H](CC(C)C)NC(=O)[C@H](C)NC(=O)CNC(=O)[C@H](CCC(N)=O)NC(=O)[C@H](CC(C)C)NC(=O)CN)C(=O)N[C@@H](CC(C)C)C(=O)N[C@H](C(=O)N[C@@H](CCSC)C(=O)O)[C@@H](C)O (H-GLQGALQRLLQASGNHAAGILTM-OH) | 6.95 µM
CC[C@H](C)[C@H](NC(=O)CNC(=O)[C@H](C)NC(=O)[C@H](C)NC(=O)[C@H](Cc1c[nH]cn1)NC(=O)[C@H](CC(N)=O)NC(=O)CNC(=O)[C@H](C)NC(=O)CNC(=O)[C@H](Cc1c[nH]cn1)NC(=O)[C@H](CC(C)C)NC(=O)[C@H](CC(C)C)NC(=O)CCCCCNC(=O)[C@H](CC(=O)O)NC(=O)[C@@H]1CCCN1C(=O)[C@H](CC(C)C)NC(=O)[C@@H]1CCCN1C(=O)[C@@H]1CCC(=O)N1)C(=O)N[C@@H](CC(C)C)C(=O)N[C@H](C(=O)N[C@@H](CC(C)C)C(=O)O)[C@@H](C)O ([pGlu]PLPD[Ahx]LLHGAGNHAAGILTL-OH) | > 1000 µM
CC[C@H](C)[C@H](NC(=O)CNC(=O)[C@H](C)NC(=O)[C@H](C)NC(=O)[C@H](Cc1c[nH]cn1)NC(=O)[C@H](CC(N)=O)NC(=O)CNC(=O)[C@H](C)NC(=O)CNC(=O)[C@H](Cc1c[nH]cn1)NC(=O)[C@H](CC(C)C)NC(=O)[C@@H](N)CC(C)C)C(=O)N[C@@H](CC(C)C)C(=O)N[C@H](C(=O)N[C@@H](CC(C)C)C(N)=O)[C@@H](C)O (H-LLHGAGNHAAGILTL-NH2) | > 1000 µM
CC[C@H](C)[C@H](NC(=O)CNC(=O)[C@H](C)NC(=O)[C@H](C)NC(=O)[C@@H](N)Cc1cnc[nH]1)C(=O)N[C@@H](CC(C)C)C(=O)N[C@H](C(=O)N[C@@H](CC(C)C)C(N)=O)[C@@H](C)O (H-HAAGILTL-NH2) | > 1000 µM
CC[C@H](C)[C@H](NC(=O)CNC(=O)[C@H](C)NC(=O)[C@H](C)NC(=O)[C@H](Cc1c[nH]cn1)NC(=O)[C@H](CC(N)=O)NC(=O)CNC(=O)[C@H](CO)NC(=O)[C@H](C)NC(=O)[C@H](CCC(N)=O)NC(=O)[C@H](CC(C)C)NC(=O)[C@@H]1CCCN1C(=O)[C@H](CCCN=C(N)N)NC(=O)[C@H](CCC(N)=O)NC(=O)[C@H](CC(C)C)NC(=O)[C@H](CCCN=C(N)N)NC(=O)CNC(=O)[C@H](CCC(N)=O)NC(=O)[C@H](CC(C)C)NC(=O)CN)C(=O)N[C@@H](CC(C)C)C(=O)N[C@H](C(=O)N[C@@H](CCSC)C(N)=O)[C@@H](C)O (H-GLQGRLQRPLQASGNHAAGILTM-NH2) | > 1000 µM
CC[C@H](C)[C@H](NC(=O)CNC(=O)[C@H](C)NC(=O)[C@H](C)NC(=O)[C@H](Cc1cnc[nH]1)NC(=O)[C@H](CC(N)=O)NC(=O)CNC(=O)[C@H](CO)NC(=O)[C@H](C)NC(=O)[C@H](CCC(N)=O)NC(=O)[C@H](CC(C)C)NC(=O)[C@H](CC(C)C)NC(=O)[C@@H]1CCCN1C(=O)[C@H](CCC(N)=O)NC(=O)[C@H](CC(C)C)NC(=O)[C@H](CCCNC(=N)N)NC(=O)CNC(=O)[C@H](CCC(N)=O)NC(=O)[C@H](CC(C)C)NC(=O)CN)C(=O)N[C@@H](CC(C)C)C(=O)N[C@H](C(=O)N[C@@H](CCSC)C(N)=O)[C@@H](C)O (H-GLQGRLQPLLQASGNHAAGILTM-NH2) | 17.8 µM
CC[C@H](C)[C@H](NC(=O)[C@H](C)NC(=O)[C@H](C)NC(=O)[C@H](C)NC(=O)[C@H](Cc1cnc[nH]1)NC(=O)[C@H](CC(N)=O)NC(=O)CNC(=O)[C@H](CO)NC(=O)[C@H](C)NC(=O)[C@H](CCC(N)=O)NC(=O)[C@H](CC(C)C)NC(=O)[C@H](CC(C)C)NC(=O)[C@H](CCCNC(=N)N)NC(=O)[C@H](CCC(N)=O)NC(=O)[C@H](CC(C)C)NC(=O)[C@H](CCCNC(=N)N)NC(=O)CNC(=O)[C@H](CCC(N)=O)NC(=O)[C@H](CC(C)C)NC(=O)CN)C(=O)N[C@@H](CC(C)C)C(=O)N[C@H](C(=O)N[C@@H](CCSC)C(=O)O)[C@@H](C)O (H-GLQGRLQRLLQASGNHAAAILTM-OH) | > 1000 µM

Now those with a lower EC50, led by results:

EC50 | Compound
1.2 µM | CC[C@H](C)[C@H](NC(=O)CNC(=O)[C@H](C)NC(=O)[C@H](C)NC(=O)[C@H](Cc1c[nH]cn1)NC(=O)[C@H](CC(N)=O)NC(=O)CNC(=O)[C@H](CO)NC(=O)[C@H](C)NC(=O)[C@H](CCC(N)=O)NC(=O)[C@H](CC(C)C)NC(=O)[C@H](CC(C)C)NC(=O)[C@H](CCCN=C(N)N)NC(=O)[C@H](CCC(N)=O)NC(=O)[C@H](CC(C)C)NC(=O)[C@H](CCCN=C(N)N)NC(=O)CNC(=O)[C@@H]1CCCN1C(=O)[C@H](CC(C)C)NC(=O)CN)C(=O)N[C@@H](CC(C)C)C(=O)N[C@H](C(=O)N[C@@H](CCSC)C(N)=O)[C@@H](C)O (H-GLPGRLQRLLQASGNHAAGILTM-NH2)
1.46 µM | CC[C@H](C)[C@H](NC(=O)CNC(=O)[C@H](C)NC(=O)[C@H](C)NC(=O)[C@H](Cc1c[nH]cn1)NC(=O)[C@H](CC(N)=O)NC(=O)CNC(=O)[C@H](C)NC(=O)[C@H](C)NC(=O)[C@H](CCC(N)=O)NC(=O)[C@H](CC(C)C)NC(=O)[C@H](CC(C)C)NC(=O)[C@H](CCCN=C(N)N)NC(=O)[C@H](CCC(N)=O)NC(=O)[C@H](CC(C)C)NC(=O)[C@H](CCCN=C(N)N)NC(=O)CNC(=O)[C@H](CCC(N)=O)NC(=O)[C@H](CC(C)C)NC(=O)CN)C(=O)N[C@@H](CC(C)C)C(=O)N[C@H](C(=O)N[C@@H](CCSC)C(=O)O)[C@@H](C)O (H-GLQGRLQRLLQAAGNHAAGILTM-OH)
5.52 µM | CC[C@H](C)[C@H](NC(=O)CNC(=O)[C@H](C)NC(=O)[C@H](C)NC(=O)[C@H](Cc1cnc[nH]1)NC(=O)[C@H](CC(N)=O)NC(=O)CNC(=O)[C@H](C)NC(=O)CNC(=O)[C@H](Cc1cnc[nH]1)NC(=O)[C@H](CC(C)C)NC(=O)[C@H](CC(C)C)NC(=O)[C@H](CCC(=O)O)NC(=O)[C@H](Cc1ccc(O)cc1)NC(=O)[C@H](CC(C)C)NC(=O)[C@H](CCCNC(=N)N)NC(=O)CCCCCNC(=O)[C@H](CC(=O)O)NC(=O)[C@@H]1CCCN1C(=O)[C@H](CC(C)C)NC(=O)[C@@H]1CCCN1C(=O)[C@@H]1CCC(=O)N1)C(=O)N[C@@H](CC(C)C)C(=O)N[C@H](C(=O)N[C@@H](CC(C)C)C(=O)O)[C@@H](C)O ([pGlu]PLPD[Ahx]RLYELLHGAGNHAAGILTL-OH)
1.7 µM | CC[C@H](C)[C@H](NC(=O)CNC(=O)[C@H](C)NC(=O)[C@H](C)NC(=O)[C@H](Cc1cnc[nH]1)NC(=O)[C@H](CC(N)=O)NC(=O)CNC(=O)[C@H](CO)NC(=O)[C@H](C)NC(=O)[C@H](CCC(N)=O)NC(=O)[C@H](CC(C)C)NC(=O)[C@H](CC(C)C)NC(=O)[C@H](CCCNC(=N)N)NC(=O)[C@H](CCC(N)=O)NC(=O)[C@H](CC(C)C)NC(=O)[C@H](CCCNC(=N)N)NC(=O)CNC(=O)[C@H](CCC(N)=O)NC(=O)[C@@H]1CCCN1C(=O)CN)C(=O)N[C@@H](CC(C)C)C(=O)N[C@H](C(=O)N[C@@H](CCSC)C(N)=O)[C@@H](C)O (H-GPQGRLQRLLQASGNHAAGILTM-NH2)
0.81 µM | CC[C@H](C)[C@H](NC(=O)CNC(=O)[C@H](C)NC(=O)[C@H](C)NC(=O)[C@H](Cc1c[nH]cn1)NC(=O)[C@H](CC(N)=O)NC(=O)CNC(=O)[C@H](C)NC(=O)CNC(=O)[C@H](Cc1c[nH]cn1)NC(=O)[C@H](CC(C)C)NC(=O)[C@H](CC(C)C)NC(=O)[C@H](CCC(=O)O)NC(=O)[C@H](Cc1ccc(O)cc1)NC(=O)[C@H](CC(C)C)NC(=O)[C@H](CCCN=C(N)N)NC(=O)[C@H](CS)NC(=O)[C@H](CO)NC(=O)[C@H](CS)NC(=O)[C@@H](NC(=O)[C@H](CCCCN)NC(=O)[C@H](CCC(N)=O)NC(=O)[C@H](CCCN=C(N)N)NC(=O)[C@H](CS)NC(=O)[C@@H](N)CS)[C@@H](C)O)C(=O)N[C@@H](CC(C)C)C(=O)N[C@H](C(=O)N[C@@H](CC(C)C)C(N)=O)[C@@H](C)O (H-CCRQKTCSCRLYELLHGAGNHAAGILTL-NH2)
1.3 µM | CC[C@H](C)[C@H](NC(=O)CNC(=O)[C@H](C)NC(=O)[C@H](C)NC(=O)[C@H](Cc1c[nH]cn1)NC(=O)[C@H](CC(N)=O)NC(=O)CNC(=O)[C@H](CO)NC(=O)[C@H](C)NC(=O)[C@H](CCC(N)=O)NC(=O)[C@H](CC(C)C)NC(=O)[C@H](CC(C)C)NC(=O)[C@H](CCCNC(=N)N)NC(=O)[C@H](C)NC(=O)[C@H](CC(C)C)NC(=O)[C@H](CCCNC(=N)N)NC(=O)CNC(=O)[C@H](CCC(N)=O)NC(=O)[C@H](CC(C)C)NC(=O)CN)C(=O)N[C@@H](CC(C)C)C(=O)N[C@H](C(=O)N[C@@H](CCSC)C(=O)O)[C@@H](C)O (H-GLQGRLARLLQASGNHAAGILTM-OH)
1.34 µM | CC[C@H](NC(=O)[C@H](CO)NC(=O)[C@H](CS)NC(=O)[C@@H](NC(=O)[C@H](CCCCN)NC(=O)[C@H](CCC(N)=O)NC(=O)[C@H](CCCN=C(N)N)NC(=O)[C@H](CC)NC(=O)[C@H](CS)NC(=O)[C@H](CC(=O)O)NC(=O)[C@@H]1CCCN1C(=O)[C@H](CC(C)C)NC(=O)[C@@H]1CCCN1C(=O)[C@@H]1CCC(=O)N1)[C@@H](C)O)C(=O)N[C@@H](CCCN=C(N)N)C(=O)N[C@@H](CC(C)C)C(=O)N[C@@H](Cc1ccc(O)cc1)C(=O)N[C@@H](CCC(=O)O)C(=O)N[C@@H](CC(C)C)C(=O)N[C@@H](CC(C)C)C(=O)N[C@@H](Cc1c[nH]cn1)C(=O)NCC(=O)N[C@@H](C)C(=O)NCC(=O)N[C@@H](CC(N)=O)C(=O)N[C@@H](Cc1c[nH]cn1)C(=O)N[C@@H](C)C(=O)N[C@@H](C)C(=O)NCC(=O)N[C@H](C(=O)N[C@@H](CC(C)C)C(=O)N[C@H](C(=O)N[C@@H](CC(C)C)C(=O)O)[C@@H](C)O)[C@@H](C)CC ([pGlu]PLPDC[Abu]RQKTCS[Abu]RLYELLHGAGNHAAGILTL-OH)

From ChEMBL document CHEMBL1148480, “Structure-activity studies of orexin a and orexin B at the human orexin 1 and orexin 2 receptors led to orexin 2 receptor selective and orexin 1 receptor preferring ligands” (J Med Chem, 2004)
